Laboratory results from patent US20250122174A1 (Shenzhen Yuanli Shenwan Innovative Medicine Co., Ltd., priority 2022, published 2025).
pIC50: −log10 of the molar value.

The compounds below were run against HPK1 (Homo sapiens (Human), UniProt Q92918) (assay: HPK1 Inhibition Assay (ADP-Glo kinase assay)). Conditions: ATP 10 μM.
Format: biochemical
How it was run: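 ADP-Glo luminescence read-out after 1 h room-temperature kinase reaction with 10 μM ATP and 0.1 μg/ml MBP. Recombinant human HPK1 at 7.5 ng/μl; buffer 40 mM Tris pH 7.5, 20 mM MgCl2. Compounds serially diluted 5-fold over 10 points from 10 mM DMSO stock.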

Sequence of HPK1 (Q92918 1-346 limits assumed): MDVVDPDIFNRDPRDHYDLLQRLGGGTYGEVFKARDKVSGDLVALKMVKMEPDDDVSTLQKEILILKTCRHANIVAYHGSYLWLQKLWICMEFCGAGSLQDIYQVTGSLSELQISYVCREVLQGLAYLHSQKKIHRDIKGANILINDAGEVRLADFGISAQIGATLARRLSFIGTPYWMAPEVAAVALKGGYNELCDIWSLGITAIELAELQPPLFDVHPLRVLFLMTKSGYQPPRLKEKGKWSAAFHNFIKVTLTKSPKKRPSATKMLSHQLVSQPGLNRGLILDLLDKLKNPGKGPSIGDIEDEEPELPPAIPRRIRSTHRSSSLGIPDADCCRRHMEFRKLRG

pIC50, > 7.00:
C[C@@H]1CN(c2c(NC(=O)c3ccc(=O)n(-c4c(F)cccc4F)n3)ccc3c2cnn3C2CCCCC2)C[C@@H]1N [Example 297, N-(4-((3R,4R)-3-amino-4-methylpyrrolidin-1-yl)-1-cyclohexyl-1H-indazol-5-yl)-1-(2,6-difluorophenyl)-6-oxo-1,6-dihydropyridazine-3-carboxamide]
C[C@@H]1CN(c2c(NC(=O)c3ccc(=O)n(-c4c(F)cccc4F)n3)ccc3c2cnn3C2CC2)C[C@@H]1N [Example 298, N-[4-[(3R,4R)-3-amino-4-methyl-pyrrolidin-1-yl]-1-cyclopropyl-indazol-5-yl]-1-(2,6-difluorophenyl)-6-oxo-pyridazine-3-carboxamide]
C[C@H]1CN(c2c(NC(=O)c3ccc(=O)n(-c4c(F)cccc4F)n3)ccc3c2cnn3C2CC2)C[C@@H]1N [Example 299, N-(4-((3R,4S)-3-amino-4-methylpyrrolidin-1-yl)-1-cyclopropyl-1H-indazol-5-yl)-1-(2,6-difluorophenyl)-6-oxo-1,6-dihydropyridazine-3-carboxamide]
N[C@H]1CN(c2c(NC(=O)c3ccc(=O)n(-c4c(F)cccc4F)n3)ccc3c2cnn3C2CC2)CC12CC2 [Example 300, (R)-N-(4-(7-amino-5-azaspiro[2.4]heptan-5-yl)-1-cyclopropyl-1H-indazol-5-yl)-1-(2,6-difluorophenyl)-6-oxo-1,6-dihydropyridazine-3-carboxamide]
N[C@@H]1CCN(c2c(NC(=O)c3ccc(=O)n(-c4c(F)cccc4F)n3)ccc3c2cnn3C2CC2)C1 [Example 301, (R)-N-(4-(3-aminopyrrolidin-1-yl)-1-cyclopropyl-1H-indazol-5-yl)-1-(2,6-difluorophenyl)-6-oxo-1,6-dihydropyridazine-3-carboxamide]
CC(C)(C)n1ncc2c(N3C[C@H](N)C4(CC4)C3)c(NC(=O)c3ccc(=O)n(-c4c(F)cccc4F)n3)ccc21 [Example 302, N-[4-[(7R)-7-amino-5-azaspiro[2.4]heptan-5-yl]-1-tert-butyl-indazol-5-yl]-1-(2,6-difluorophenyl)-6-oxo-pyridazine-3-carboxamide]
C[C@@H]1CN(c2c(NC(=O)c3ccc(=O)n(-c4c(F)cccc4F)n3)ccc3c2cnn3C(C)(C)C)C[C@@H]1N [Example 303, N-(4-((3R,4R)-3-amino-4-methylpyrrolidin-1-yl)-1-(tert-butyl)-1H-indazol-5-yl)-1-(2,6-difluorophenyl)-6-oxo-1,6-dihydropyridazine-3-carboxamide]
C[C@@H]1CN(c2c(NC(=O)c3ccc(=O)n(-c4c(F)cccc4F)n3)ccc3nn(C45CCC(CC4)CC5)cc23)C[C@@H]1N [Example 304, N-(4-((3R,4R)-3-amino-4-methylpyrrolidin-1-yl)-2-(bicyclo[2.2.2]octan-1-yl)-2H-indazol-5-yl)-1-(2,6-difluorophenyl)-6-oxo-1,6-dihydropyridazine-3-carboxamide]
C[C@@H]1CN(c2c(NC(=O)c3ccc(=O)n(-c4c(F)cccc4F)n3)ccc3nn(C45CC6CC(CC(C6)C4)C5)cc23)C[C@@H]1N [Example 305, N-(2-((3S,5S,7S)-adamantan-1-yl)-4-((3R,4R)-3-amino-4-methylpyrrolidin-1-yl)-2H-indazol-5-yl)-1-(2,6-difluorophenyl)-6-oxo-1,6-dihydropyridazine-3-carboxamide]
C[C@@H]1CN(c2c(NC(=O)c3ccc(=O)n(-c4c(F)cccc4F)n3)ccc3nn(C45CCC(CC4)C5)cc23)C[C@@H]1N [Example 306, N-(4-((3R,4R)-3-amino-4-methylpyrrolidin-1-yl)-2-(bicyclo[2.2.1]heptan-1-yl)-2H-indazol-5-yl)-1-(2,6-difluorophenyl)-6-oxo-1,6-dihydropyridazine-3-carboxamide]
